Earlier results as cited in patent publication US5767071A, “Sevenmer cyclic peptide inhibitors of diseases involving αv β3” (IXSYS Incorporated, priority 1995, dated 1998).

Assays:
[1] = tested on: chicken embryo tumor model
integrin αv β3 = integrin αv β3 (Homo sapiens, UniProt P05106+P06756); conditions: binding and cell adhesion assays
Sequence of integrin αv β3 (P06756 31-889 limits assumed): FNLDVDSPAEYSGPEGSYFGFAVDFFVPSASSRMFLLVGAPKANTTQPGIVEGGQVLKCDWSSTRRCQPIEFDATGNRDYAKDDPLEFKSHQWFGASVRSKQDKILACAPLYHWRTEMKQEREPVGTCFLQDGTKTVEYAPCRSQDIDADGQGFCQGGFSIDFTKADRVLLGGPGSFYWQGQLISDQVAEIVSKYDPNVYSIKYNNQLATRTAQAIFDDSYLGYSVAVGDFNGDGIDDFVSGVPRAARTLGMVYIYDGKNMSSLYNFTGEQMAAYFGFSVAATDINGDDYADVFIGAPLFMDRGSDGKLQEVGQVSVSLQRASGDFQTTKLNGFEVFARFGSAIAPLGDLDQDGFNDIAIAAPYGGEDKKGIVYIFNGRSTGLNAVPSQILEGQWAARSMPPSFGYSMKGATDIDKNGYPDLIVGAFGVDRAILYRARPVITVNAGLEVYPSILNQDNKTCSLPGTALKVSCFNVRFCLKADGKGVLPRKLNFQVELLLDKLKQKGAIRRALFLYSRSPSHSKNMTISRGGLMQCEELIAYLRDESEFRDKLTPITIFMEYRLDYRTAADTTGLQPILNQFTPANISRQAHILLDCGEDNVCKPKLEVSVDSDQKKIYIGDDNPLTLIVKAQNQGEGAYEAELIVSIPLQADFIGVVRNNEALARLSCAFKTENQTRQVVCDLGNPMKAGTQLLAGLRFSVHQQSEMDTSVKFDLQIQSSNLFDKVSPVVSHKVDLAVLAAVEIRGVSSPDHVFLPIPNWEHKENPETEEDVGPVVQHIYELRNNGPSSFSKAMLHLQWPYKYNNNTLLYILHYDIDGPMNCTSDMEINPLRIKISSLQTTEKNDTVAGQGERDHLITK
Sequence of integrin αv β3 (P06756 891-1048 limits assumed): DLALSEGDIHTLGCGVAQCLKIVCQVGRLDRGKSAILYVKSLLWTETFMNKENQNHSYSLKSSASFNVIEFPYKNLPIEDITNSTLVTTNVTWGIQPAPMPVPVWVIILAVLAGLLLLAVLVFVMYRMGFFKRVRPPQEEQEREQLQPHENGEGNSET
Sequence of integrin αv β3 (P05106 27-788): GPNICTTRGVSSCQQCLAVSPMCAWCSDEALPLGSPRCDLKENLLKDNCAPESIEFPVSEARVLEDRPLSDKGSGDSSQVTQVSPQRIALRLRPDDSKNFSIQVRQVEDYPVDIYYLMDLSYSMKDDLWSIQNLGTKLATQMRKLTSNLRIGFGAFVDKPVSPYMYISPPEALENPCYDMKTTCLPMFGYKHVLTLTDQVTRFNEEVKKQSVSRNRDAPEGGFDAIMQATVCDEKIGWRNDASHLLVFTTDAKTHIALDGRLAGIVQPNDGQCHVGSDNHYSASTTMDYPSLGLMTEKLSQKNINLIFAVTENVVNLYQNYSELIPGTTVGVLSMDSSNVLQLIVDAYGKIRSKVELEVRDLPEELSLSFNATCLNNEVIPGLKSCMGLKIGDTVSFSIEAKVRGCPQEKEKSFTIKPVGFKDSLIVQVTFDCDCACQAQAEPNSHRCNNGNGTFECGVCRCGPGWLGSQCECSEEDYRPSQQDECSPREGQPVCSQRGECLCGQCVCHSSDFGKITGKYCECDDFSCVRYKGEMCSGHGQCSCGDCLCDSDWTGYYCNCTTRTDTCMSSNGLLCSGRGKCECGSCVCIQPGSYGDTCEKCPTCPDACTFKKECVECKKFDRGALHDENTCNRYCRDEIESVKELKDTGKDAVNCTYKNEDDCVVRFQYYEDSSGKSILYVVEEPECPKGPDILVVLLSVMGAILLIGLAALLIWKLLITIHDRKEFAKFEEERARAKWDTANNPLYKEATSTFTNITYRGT

For CC(C)[C@@H]1NC(=O)[C@@H](Cc2ccccc2)NC(=O)[C@H](CC(=O)O)NC(=O)CNC(=O)[C@H](CCCN=C(N)N)NC1=O [cyclo-RGDfv], the “inhibition of angiogenesis / neovascularization” value [1] is listed as “inhibit the neovascularization process”.

In the case of “ACPSRLDSPCG [RLD peptide from a literature phage library (Koivunen et al.)]”, the “activity compared with an RGD peptide” value (integrin αv β3) is given as 100-1000 fold lower and the “selectivity for the integrin αv β3” value (integrin αv β3) is given as “only partially selective”.

In the case of Gly-Arg-Gly-Asp-Ser (GRGDS), the “inhibition of angiogenesis in vitro” value (angiogenesis) is listed as “inhibits angiogenesis in vitro”.
